Experiments:
HIVIIIB = test: Antiviral Activity: anti-HIV activity in MT4 cells infected with HIVIIIB (MTT); type: cell-based; conditions: Human immunodeficiency virus 1, 120 h, MOI 0.003, 5 days, n=four duplicate determinations
Description: (§1) The anti-HIV activity of the compound of the invention was determined in MF4 cells according to the following procedure: MT4 cells were infected with cell-free supernatant of HIVIIIB (previously frozen with known 50% tissue culture infectious dose (TCID50) at 0.003 multiplicity of infection (MOI)) for one hour. After one hour infection, cells were washed twice to remove residual viruses, resuspended in culture media and seeded into 96-well tissue culture plates at 1×10^4 cells per well with various half-log dilutions of compounds. Uninfected cells were included a toxicity and cell controls. RPMI 1640 media (GIBCO) with 10% fetal bovine serum was used as culture media. Various concentrations (50%, 25% and 12.5%) of human serum (SIGMA) were added to culture media resulting in final concentrations of 60%, 35% and 22.5% total serum. All assay plates were incubated in a 37° C. incubator for 5 days. The compound 3-[4,5-dimethylthiozol-2-yl]-2,5-diphenyltetrazolium bromide (MTT, SIGMA, 5 mg .mL stock in PBS) was then added to all wells at 25 μL per well and incubated for 4 hours. SDS (20%) with 0.02N HCl in water was added at 50 μL per well to lyse cells. Plates were incubated overnight for complete cell lysis and then read on a microtiter plate reader at 570/650 nm wavelengths to determine cell optical density (O.D.). Raw data was analysed for percent inhibition by the following formula: [formula]
The 50% effective concentration (EC50) was calculated by the median effect equation (Chou, 1975, Proc. Int. Cong. Pharmacol. 6th p. 619) to determine the efficacy of compound. The 50% cytotoxicity concentration (CTC50) was calculated using uninfected MT4 cells
Under these conditions, the data of Table 2 was obtained (n=four duplicate determinations).

[1] = Cytotoxicity in uninfected MT4 cells (MTT); type: cell-based; conditions: human, 5 days, n=four duplicate determinations, read-out: CTC50 (50% cytotoxicity concentration)
Description: as §1, with “RPMI 1640 media (GIBCO) with 10% fetal bovine serum was used as culture media. Various concentrations (50%, 25% and 12.5%) of human serum (SIGMA) were added to culture media resulting in final concentrations of 60%, 35% and 22.5% total serum.” left out, “The compound 3-[4,5-dimethylthiozol-2-yl]-2,5-diphenyltetrazolium bromide (MTT, SIGMA, 5 mg .mL stock in PBS) was then added to all wells at 25 μL per well and incubated for 4 hours.” left out
The 50% cytotoxicity concentration (CTC50) was calculated using uninfected MT4 cells

HIV-1 protease = HIV-1 protease (Human immunodeficiency virus type 1 group M subtype B, UniProt P04585); test: Fluorogenic Assay for Screening Inhibitors of HIV Protease; conditions: pH 4.5

| Compound | EC50 (HIVIIIB) [nM] | CC50 at 120 h [1] [nM] | inhibition at 0.0005 µM (HIV-1 protease) [%] | inhibition at 0.001 µM (HIV-1 protease) [%] | inhibition at 0.0014 µM (HIV-1 protease) [%] | inhibition at 0.0011 µM (HIV-1 protease) [%] |
| --- | --- | --- | --- | --- | --- | --- |
| CC(C)[C@H](NC(=O)OCc1cncs1)C(=O)N[C@@H](Cc1ccccc1)C[C@H](O)[C@H](Cc1ccccc1)NC(=O)O[C@H]1CO[C@H]2OCC[C@H]21 [Example 42, (2S,3S,5S)-5-(N-(N-((5-Thiazolyl)methoxycarbonyl)-L-valinyl)amino)-2-((3R,3aS,6aR)-bis-tetrahydrofuran-3-yl-oxycarbonyl)amino-1,6-diphenyl-3-hydroxyhexane] | 70 | > 100000 | 80 |  |  |  |
| CC(C)[C@@H](NC(=O)OCc1cncs1)C(=O)N[C@@H](Cc1ccccc1)C[C@H](O)[C@H](Cc1ccccc1)NC(=O)O[C@H]1CO[C@H]2OCC[C@H]21 [Example 43, (2S,3S,5S)-5-(N-(N-((5-Thiazolyl)methoxycarbonyl)-D-valinyl)amino)-2-((3R,3aS,6aR)-bis-tetrahydrofuran-3-yl-oxycarbonyl)amino-1,6-diphenyl-3-hydroxyhexane] | 270 | > 100000 | 42 |  |  |  |
| CC(C)[C@@H](NC(=O)N(C)Cc1cncs1)C(=O)N[C@@H](Cc1ccccc1)C[C@H](O)[C@H](Cc1ccccc1)NC(=O)O[C@H]1CO[C@H]2OCC[C@H]21 [Example 44, (2S,3S,5S)-5-(N-(N-((N-Methyl-N-((5-thiazolyl)methyl)amino)carbonyl)-D-valinyl)amino)-2-((3R,3aS,6aR)-bis-tetrahydrofuran-3-yl-oxycarbonyl)amino-1,6-diphenyl-3-hydroxyhexane] | 370 | > 100000 | 72 |  |  |  |
| CC(C)[C@H](NC(=O)N(C)Cc1cncs1)C(=O)N[C@@H](Cc1ccccc1)C[C@H](O)[C@H](Cc1ccccc1)NC(=O)O[C@H]1CO[C@H]2OCC[C@H]21 [Example 45, (2S,3S,5S)-5-(N-(N-((N-Methyl-N-((5-thiazolyl)methyl)amino)carbonyl)-L-valinyl)amino)-2-((3R,3aS,6aR)-bis-tetrahydrofuran-3-yl-oxycarbonyl)amino-1,6-diphenyl-3-hydroxyhexane] | 450 | > 100000 | 56 |  |  |  |
| CC(C)c1nc(CN(C)C(=O)N[C@H](C(=O)N[C@@H](Cc2ccccc2)[C@@H](O)C[C@H](Cc2ccccc2)NC(=O)O[C@H]2CO[C@H]3OCC[C@H]32)C(C)C)cs1 [Example 46, (2S,3S,5S)-2-(N-(N-((N-Methyl-N-((2-isopropyl-4-thiazolyl)methyl)amino)carbonyl)-L-valinyl)amino)-5-((3R,3aS,6aR)-bis-tetrahydrofuran-3-yl-oxycarbonyl)amino-1,6-diphenyl-3-hydroxyhexane] | 34 | 56200 | 74 |  |  |  |
| Cc1nc(CN(C)C(=O)N[C@H](C(=O)N[C@@H](Cc2ccccc2)C[C@H](O)[C@H](Cc2ccccc2)NC(=O)O[C@@H]2CO[C@@H]3OCC[C@@H]32)C(C)C)cs1 [Example 47, (2S,3S,5S)-5-(N-(N-((N-Methyl-N-((2-methyl-4-thiazolyl)methyl)amino)carbonyl)-L-valinyl)amino)-2-((3S,3aR,6aS)-bis-tetrahydrofuran-3-yl-oxycarbonyl)amino-1,6-diphenyl-3-hydroxyhexane] | 55 | > 100000 | 82 |  |  |  |
| CC(C)c1nc(CN(C)C(=O)N[C@H](C(=O)N[C@@H](Cc2ccccc2)C[C@H](O)[C@H](Cc2ccccc2)NC(=O)O[C@@H]2CO[C@@H]3OCC[C@@H]32)C(C)C)cs1 [Example 48, (2S,3S,5S)-5-(N-(N-((N-Methyl-N-((2-isopropyl-4-thiazolyl)methyl)amino)carbonyl)-L-valinyl)amino)-2-((3S,3aR,6aS)-bis-tetrahydrofuran-3-yl-oxycarbonyl)amino-1,6-diphenyl-3-hydroxyhexane] | 11 | 46600 | 80 |  |  |  |
| Cc1nc(CN(C)C(=O)N[C@H](C(=O)N[C@@H](Cc2ccccc2)C[C@H](O)[C@H](Cc2ccccc2)NC(=O)O[C@H]2CO[C@H]3OCC[C@H]32)C(C)C)cs1 [Example 49, (2S,3S,5S)-5-(N-(N-((N-Methyl-N-((2-methyl-4-thiazolyl)methyl)amino)carbonyl)-L-valinyl)amino)-2-((3R,3aS,6aR)-bis-tetrahydrofuran-3-yl-oxycarbonyl)amino-1,6-diphenyl-3-hydroxyhexane] | 42 | > 100000 | 74 |  |  |  |
| CC(C)c1nc(CN(C)C(=O)N[C@H](C(=O)N[C@@H](Cc2ccccc2)C[C@H](O)[C@H](Cc2ccccc2)NC(=O)O[C@H]2CCOC2)C(C)C)cs1 [Example 50, (2S,3S,5S)-5-(N-(N-((N-Methyl-N-((2-isopropyl-4-thiazolyl)methyl)amino)carbonyl)-L-valinyl)amino)-2-(3S-tetrahydrofuran-3-yl-oxycarbonyl)amino-1,6-diphenyl-3-hydroxyhexane] | 32 | 56200 | 68 |  |  |  |
| CC(C)c1nc(CN(C)C(=O)NC(C(=O)NC(Cc2ccccc2)CC(O)C(Cc2ccccc2)NC(=O)OC2COC3OCCC23)C(C)C)cs1 [Example 51, (2S,3S,5S)-5-(N-(N-((N-Methyl-N-((2-isopropyl-4-thiazolyl)methyl)amino)carbonyl)-D-valinyl)amino)-2-((3R,3aS,6aR)-bis-tetrahydrofuran-3-yl-oxycarbonyl)amino-1,6-diphenyl-3-hydroxyhexane] | 12 | > 100000 | 83 |  |  |  |
| Cc1nc(CN(C)C(=O)N[C@H](C(=O)N[C@@H](Cc2ccccc2)C[C@H](O)[C@H](Cc2ccccc2)NC(=O)OC2COC3OCCC23)C(C)C)cs1 (stereo partly drawn) [Example 52, (2S,3S,5S)-5-(N-(N-((N-Methyl-N-((2-methyl-4-thiazolyl)methyl)amino)carbonyl)-L-valinyl)amino)-2-((3R,3aS,6aR),(3S,3aR,6aS)-bis-tetrahydrofuran-3-yl-oxycarbonyl)amino-1,6-diphenyl-3-hydroxyhexane] | 72 | > 100000 | 69 |  |  |  |
| O=C(N[C@@H](Cc1ccccc1)[C@@H](O)C[C@H](Cc1ccccc1)NC(=O)c1ccc(O)cc1)O[C@@H]1CO[C@@H]2OCC[C@@H]21 [Example 53, (2S,3S,5S)-5-(4-Hydroxy-benzoyl)amino-2-((3S,3aR,6aS)-bis-tetrahydrofuran-3-yl-oxycarbonyl)amino-1,6-diphenyl-3-hydroxyhexane] | 704 | > 100000 |  | 56 |  |  |
| CC(=O)Oc1ccc(C(=O)N[C@@H](Cc2ccccc2)C[C@H](O)[C@H](Cc2ccccc2)NC(=O)O[C@H]2CO[C@H]3OCC[C@H]32)cc1 [Example 54, (2S,3S,5S)-5-(4-Acetoxy-benzoyl)amino-2-((3R,3aS,6aR)-bis-tetrahydrofuran-3-yl-oxycarbonyl)amino-1,6-diphenyl-3-hydroxyhexane] | 145 | > 100000 |  |  | 50 |  |
| O=C(N[C@@H](Cc1ccccc1)[C@@H](O)C[C@H](Cc1ccccc1)NC(=O)c1ccc(O)cc1)O[C@H]1CO[C@H]2OCC[C@H]21 [Example 55, (2S,3S,5S)-5-(4-Hydroxy-benzoyl)amino-2-((3R,3aS,6aR)-bis-tetrahydrofuran-3-yl-oxycarbonyl)amino-1,6-diphenyl-3-hydroxyhexane] | 11 | 49500 | 82 |  |  |  |
| O=C(N[C@@H](Cc1ccccc1)[C@@H](O)C[C@H](Cc1ccccc1)NC(=O)c1ccc(O)cc1Cl)O[C@H]1CO[C@H]2OCC[C@H]21 [Example 57, (2S,3S,5S)-5-(2-Chloro-4-hydroxy-benzoyl)amino-2-((3R,3aS,6aR)-bis-tetrahydrofuran-3-yl-oxycarbonyl)amino-1,6-diphenyl-3-hydroxyhexane] | 120 | 80900 | 78 |  |  |  |
| O=C(N[C@@H](Cc1ccccc1)[C@@H](O)C[C@H](Cc1ccccc1)NC(=O)c1cccc(O)c1)O[C@@H]1CO[C@@H]2OCC[C@@H]21 [Example 58, (2S,3S,5S)-5-(3-Hydroxy-benzoyl)amino-2-((3S,3aR,6aS)-bis-tetrahydrofuran-3-yl-oxycarbonyl)amino-1,6-diphenyl-3-hydroxyhexane] | 2610 | > 100000 |  |  |  | 50 |

Source: patent publication US5905068A, “Retroviral protease inhibiting compounds” (Abbott Laboratories, priority 1996, dated 1999)
